Measurements as given in a melting point compilation (Tetko et al.; mined from patent text by program, amines drawn as free bases though some values may be those of a salt).

Row | melting point | Compound
1 | 55 to 57 °C | Nc1ccc(Oc2cc(F)c(C(F)(F)F)c(Cl)c2)cc1
2 | 57 to 59 °C | CCOC1CC2(C)C(CCC3C4CCC(CC)C4(C)CC(N(C)C)C32)CC1O (stereo unspecified)
3 | 257 to 258 °C | CC1CCC(=NNc2ccc([N+](=O)[O-])cc2[N+](=O)[O-])c2ncc(C(=O)O)c(=O)n21 (stereo unspecified)
4 | 59 to 61 °C | COC1=C(C)C(C)(F)C(C(=O)c2ccccc2)C=C1 (stereo unspecified)
5 | 61 to 65 °C | Cc1ccc(NC=CS(=O)(=O)F)cc1
6 | 211 to 213 °C | Cc1nc(Sc2cccc(C(=O)O)n2)sc1CC(=O)O
7 | 155 to 156 °C | CC(C)(C)OC(=O)N1C(=O)O[C@@H](c2ccc(F)cc2)[C@H]1Cc1ccc(C(F)(F)F)cc1 (racemic)
8 | 172 °C | COc1cc(C(=O)c2ccc(C(F)(F)F)cc2)cc([N+](=O)[O-])c1O
9 | 180 to 182 °C | O=C1N(Cc2noc(C3CC3)n2)c2cccc(Cl)c2C12COc1cc3c(cc12)OCO3 (stereo unspecified)
10 | 30 to 35 °C | CCCCC(=O)OC1C=CC(OC(=O)CCCC)O1 (stereo unspecified)
11 | 176 to 177 °C | COc1cc(Cl)c2c(=O)c(Br)coc2c1
12 | 44 to 45 °C | CCOC(=O)c1c(CN(CC)CC)nc2n(Cc3ccccc3)c3ccccc3n12
13 | 139 to 141 °C | O=C(O)C1CCC(=O)N1Cc1ccccc1C(F)(F)F (stereo unspecified)
14 | 130 to 132 °C | CCCCCCCCCCCCCCCCCCOc1ccc(C(=O)C(=O)N(CC(=O)O)CC(=O)O)cc1
15 | 48 to 50 °C | CC(C)[C@@H]1CC[C@@H](C)C[C@@]1(O)CO
16 | 75 to 90 °C | COCCCn1ccc2c1CC(c1ccccc1Cl)C1C(=O)NC(=O)C21 (stereo unspecified)
17 | 236 °C | O=C(C=Cc1ccc(O)cc1)C=Cc1ccc(O)cc1
18 | 164 to 167 °C | COc1ccc2[nH]c(C(C)=O)cc2c1
19 | 55 to 56.5 °C | CSc1ccc(OCCO)cc1
20 | 146 to 147 °C | CCOC(=O)c1c(CN2CCOCC2)nc2cc(OC)c(OC)cc2c1-c1ccc(OC)c(OC)c1
21 | 105 to 107 °C | CN(CCc1ccc(NC(=N)C(F)(F)F)cc1)Cc1ccccc1
22 | 120 to 121 °C | CCOC(=O)c1cnc2c(OC)cccc2c1Nc1ccccc1
23 | 206 to 207 °C | CCCCNC(=O)NC1Cc2ccc(C3=NNC(=O)CC3)cc2C1 (stereo unspecified)
24 | 95 to 109 °C | CCC1(NC(=O)C(Br)CCl)COCOC1 (stereo unspecified)

Row | melting point | Compound
25 | 94 to 96 °C | O=C(Oc1ccc([N+](=O)[O-])cc1)[C@@H]1CCCN1C(=O)OCc1ccccc1
26 | 177 to 178 °C | O=C(Nc1ccc(CN2CCCCC2)cc1)c1ccc2ccc(-c3ccccc3)cc2c1
27 | 168 to 171 °C | Cc1cccc2c1NCC(=O)N2
28 | 251 to 253 °C | COc1ccc2nc3c(cc2c1)c(N)nn3CC(=O)N(C)C
29 | 81 to 83 °C | O=C1NC(=O)C(Cc2ccc(OC[C@@H]3CCCN3c3ccc4ccccc4n3)cc2)S1 (stereo partly specified)
30 | 233 to 235 °C | Cc1cccc(-n2c(-c3sc(Nc4ccc(Cl)cc4)nc3-c3ccccc3)nc3ccccc3c2=O)c1
31 | 94 to 96 °C | CC(C)C(NC(=O)c1ccc(C(=O)NCc2ccc([N+](=O)[O-])cc2)cc1)C(=O)N1CCCC1C(=O)NC(C(=O)C(F)(F)F)C(C)C (mixture of isomers)
32 | 187 °C | CC(C)c1ccc(N(Cc2ccc(N(C)C)nc2)C(=O)C2CCCc3c(O)cccc32)cc1 (stereo unspecified)
33 | 326 °C | O=C(CCc1ccccc1)Nc1ccc(C(=O)NN=C2C(=O)Nc3ccc(Br)cc32)cc1
34 | 207 °C | O=C(Nc1cccc(S(=O)(=O)C(F)(F)F)c1)c1cnn2c(C(F)(F)F)cc(-c3ccc(C(F)(F)F)cc3)nc12
35 | 80 to 82 °C | Cc1c(Cl)nnc(Cl)c1C
36 | 125 °C | O=C(O)CSCCSc1cc(-c2ccccc2)c(O)c(-c2ccccc2)c1
37 | 178 to 180 °C | N#Cc1nn(-c2c(Cl)cc(-c3ccc(C(F)(F)F)cc3)cc2Cl)c(N)c1Br
38 | 195 to 200 °C | O=C(O)c1ccc(CNC=C2C(=O)c3ccccc3OC2c2ccccc2)cc1 (stereo unspecified)
39 | 267 to 269 °C | CCOC(=O)c1cnc(Nc2ccccc2)[nH]c1=O
40 | 110 °C | Cc1ccnc(N2CCN(CCCC3CNc4c(ccc(C)c4-c4cc(C)c(O)c(C)c4)O3)CC2)c1 (stereo unspecified)
41 | 70.5 to 73 °C | CCOC(=O)Cc1ccc(Oc2ccc([N+](=O)[O-])cc2)cc1
42 | 133 to 135 °C | CS(=O)(=O)c1ccc(-c2cnn(CC(F)(F)F)c(=O)c2OCC2CC2)cc1
43 | 220 to 223 °C | BrCc1c(Br)c(CBr)c(Br)c(CBr)c1Br
44 | 281 to 283 °C | O=C1CC(c2ccccc2OCc2ccccc2)=Nc2ccc(N3CCOCC3)cc21
45 | 100 °C | Cn1c(=O)cc(CCc2ccc(Cl)s2)c2cc(C(N)(c3ccc(Cl)cc3)c3cccnc3)ccc21 (stereo unspecified)
46 | 147 °C | Cc1nccc(N2CCN(C(=O)c3ccccc3)CC2)n1
47 | 35 °C | CCCCCCc1c(F)cc(C2C=CC(CCCCC)=CC2)cc1F (stereo unspecified)
48 | 146 to 147 °C | CCOc1c(C(=O)O)oc2c3ccccc3n(-c3ccccc3)c12

Row | melting point | Compound
49 | 106 to 108 °C | COC(=O)C(Oc1ccc(C(C)(C)C)cc1)c1ccc(Sc2ccc(Cl)cc2)cc1 (stereo unspecified)
50 | 92 to 94 °C | CC(C)n1cc(-c2ccc(Oc3ccccc3)c(CO)c2)c2c(N)ncnc21
51 | 125 to 128 °C | Cc1cccc2c(C=O)cc(C(C)C)c(O)c12
52 | 94 to 96 °C | CCCCCCCCCCCCCCCCCCNC(=O)c1ccccc1I
53 | 148 to 150 °C | O=C1CCc2cc(-n3ccnc3)ccc21
54 | 171 to 173 °C | c1ccc(OCn2c(Nc3cnon3)nc3ccccc32)cc1
55 | 208 to 210 °C | C#CC1(OC(=O)CC)C(COC(=O)c2ccc(Cl)cc2)OC(n2ccc(=O)[nH]c2=O)C1OC(=O)CC (stereo unspecified)
56 | 225 to 227 °C | OCC1Cc2c([nH]c3ccccc23)CN1C(=S)S (stereo unspecified)
57 | 141 to 143 °C | COc1cc(OC)c(-c2cccs2)cc1/C=C/C(=O)c1ccc(S(=O)(=O)Nc2ccccn2)cc1
58 | 246 °C | O=C1OC(=O)c2cc3cccc([N+](=O)[O-])c3c3cccc1c23
59 | 223 to 226 °C | CCOC(=O)CN[C@H]1CSc2ccccc2N(CC(=O)O)C1=O
60 | 95 to 96 °C | CC(C)NCC(O)C(Oc1ccccc1)c1ccccc1 (stereo unspecified)
61 | 169 to 172 °C | CCCCNc1n[nH]c2c1c(=O)n(CCC)c1ccccc21
62 | 63 to 64 °C | O=S(=O)(Cl)c1ccc(-c2cccs2)s1
63 | 122 °C | NC(=O)c1ccc(F)c2c1CC(N(CCCCc1c[nH]c3ccc(F)cc13)C1CCC1)CO2 (stereo unspecified)
64 | 153 °C | CNS(=O)(=O)c1cc(C(=O)CCl)ccc1Cl
65 | 85 to 87 °C | O=C(O)CCCCCCCCC(=O)c1ccccc1O
66 | 146 to 148 °C | C=C(Cl)CONC(=O)c1nc(-c2ccc(Cl)c(OC)c2F)cc(N)c1Cl
67 | 118 to 119 °C | COc1ccccc1OCCCc1oc(-n2cnc(-c3ccccc3)c2-c2ccccc2)nc1-c1ccc(Cl)cc1
68 | 101 to 102 °C | C=CCN(CC=C)c1ccc(C=Cc2ccc(S(C)(=O)=O)cc2)cc1
69 | 158 to 159 °C | CC12CCC(C(=NO)C1=O)C(C)(C)O2 (stereo unspecified)
70 | 104 to 106 °C | COc1ccc2c(c1)nc(Cn1ccnc1)n2-c1ccccc1
71 | 81 to 84 °C | CCOC(=O)CC12CC(c3ccccc31)c1ccccc12
72 | 238 to 239 °C | Cc1ccc(C(=O)Nc2c(NC(=O)CN3CCN(c4ccccc4C#N)CC3)ccc3c2C(=O)c2ccccc2C3=O)cc1

Row | melting point | Compound
73 | 193 to 194 °C | COc1ccc(C(=O)Nc2cc(-c3c(-c4cccc(C)c4)nc4ccc(N(C)C)nn34)ccn2)cc1
74 | 141 to 142 °C | CC1(C)CC(N2CCCCCC2=O)CC(C)(C)N1CCO
75 | 178 °C | CCC(=NNC(=O)c1ccccc1)c1ccncc1
76 | 187 to 189 °C | Cc1ccc([C@@H]2c3c(C)c(NC(=O)Cc4ccc(C(F)(F)F)cc4)c(C)c(C)c3OC2(C)C)cc1
77 | 155 to 156 °C | Cn1ccnc1N1CCC(c2ccc([N+](=O)[O-])cc2)CC1
78 | 250 °C | CN1CCN(c2ccc3nc(-c4ccc(F)cc4)c(-c4ccncc4)n3n2)CC1
79 | 147 to 148 °C | O=C(c1cccc(CBr)c1)c1cccc(CBr)c1
80 | 130 to 131 °C | COc1ccc2cc3c(Br)nn(C(C)C)c3nc2c1
81 | 240 to 241 °C | CNC(=O)c1cc(-c2ccc(OC)cc2)nn(CC(=O)NCCO)c1=O
82 | 94 to 95 °C | CC1(C)CC(Br)c2cc(C#N)ccc2O1 (stereo unspecified)
83 | 186 to 190 °C | NS(=O)(=O)c1ccccc1-c1ccccn1
84 | 171 to 173 °C | Cc1c[nH]c2ccc(-c3nn(C(C)c4oc5ccccc5c(=O)c4-c4cccc(F)c4)c4ncnc(N)c34)cc12 (stereo unspecified)
85 | 113 to 115 °C | CS(=O)(=O)c1ccc(-c2cnn(CC(F)(F)F)c(=O)c2OCc2ccco2)cc1
86 | 148 to 151 °C | CN(C)c1cccc(CNc2nc(Nc3cccc(NS(C)(=O)=O)c3)nc3[nH]cnc23)c1
87 | 184 to 186 °C | CCOC(=O)c1cc2c(=O)n(CC)c3ccccc3n2c1
88 | 204 to 205 °C | CN(C)c1ncccc1NC(=NC#N)NC1(c2ccccc2)CCC1
89 | 325 to 327 °C | Cn1cc(C(N)=O)c(=O)c2sc(Cl)cc21
90 | 260 °C | CN(C)C(=O)N[C@H]1CC[C@H](CCN2CCC(c3cccc4c3CCO4)CC2)CC1
91 | 220 °C | COc1cc(N)c(Cl)cc1C(=O)NN1CCN(C)CC1
92 | 150 °C | COc1ccc(C(=O)c2ccccc2)cc1C(=O)O
93 | 109 to 110 °C | Cc1ccc(-c2nc(COc3ccc(CCCn4ccnc4)cc3)co2)o1
94 | 106 to 108 °C | CCN(c1ccc(C(=O)c2ccccc2)cc1N)C1CCCCC1
95 | 62 to 63 °C | CCC(CC)c1nn(-c2ccc(Cl)cn2)cc1CCCO
96 | 120 to 122 °C | COc1cc2c(cc1N1CCN(CC3Cc4ccccc4C3)CC1)OC=CCO2

Row | Compound | melting point
97 | N#Cc1nn(-c2c(Cl)cc(C(F)(F)F)cc2Cl)cc1C=C(F)F | 75 to 77 °C
98 | CC(=O)N1c2ccccc2OP1c1ccccc1 (stereo unspecified) | 73 to 75 °C
99 | CC(=O)Nc1ccc(N2CCNCC2)cc1 | 191 to 193 °C
100 | CC(C)C#Cc1ncn2c1CN(C)C(=O)c1c(Cl)cccc1-2 | 128 to 130 °C
101 | COc1ccc2c(c1OC)CCCC2(O)CN (stereo unspecified) | 138 to 140 °C
